Measured values taken from patent publication US6469028B1, “Synthesis and use of retinoid compounds having negative hormone and/or anatgonist activities” (Allergan, Inc., priority 1995, dated 2002).

Tests used:
[1] = test system: MRP-8 expression in primary foreskin keratinocytes; assay: Example 20: MRP-8 expression in keratinocytes (RT-PCR); format: cell-based, human; conditions: AGN 191183 10^−7 M or AGN 193109 10^−6 M, 3 days
Excerpt: Primary foreskin keratinocytes were isolated according to the procedure described by Nagpal et al. in J. Biol. Chem. 270:923 (1995) and cultured in keratinocyte growth medium (KGM) that was purchased from Clonetics. […] The mRNA was reverse transcribed into cDNA which then served as the template in a PCR amplification protocol using primers specific for either the glyceraldehyde phosphate dehydrogenase (GAPDH) housekeeping gene or MRP-8. The GAPDH primers had the sequences [NT] ID NO:6) and [NT] ID NO:7). The MRP-8 primers had the sequences [NT] ID NO:8) and [NT] ID NO:9). An aliquot from the MRP-8 amplification reaction (10 μl) was removed after every cycle of PCR amplification starting from 12 cycles and ending at 21 cycles. Similarly, an aliquot of the GAPDH amplification reaction was removed after every PCR cycle starting at 15 cycles and ending at 24 cycles. […] The staining intensity of the amplification products served as a quantitative measure of the amount of starting MRNA specific for the given primer set.

[2] = test system: ECE16-1 cells; assay: Example 17: EGF dependent proliferation of ECE16-1 cells; format: cell-based; conditions: 10 nM AGN 191183 and 0 nM AGN 193109, three days
Method: ECE16-1 cells were seeded at a density of 1×10^4 cells per cm^2 in complete medium containing DMEM:F12 (3:1), nonessential amino acids, 5% FBS, 5 μg/ml transferring, 2 nM of 3,3′,5 triiodothyronine (thyroid hormone or “T3”), 0.1 nNM cholera toxin, 2 mM L-glutamine, 1.8×10^−4 M adenine and 10 ng/ml EGF. Cells were allowed to attach to plates overnight and then shifted to defined medium containing DMEM:F12 (3:1), 2 mM L-glutamine, nonessential amino acids, 0.1% bovine serum albumin, 1.8×10^−4 M adenine, 5 μg/ml transferring, 2 nM T3, 50 μg/ml ascorbic acid, 100 ug/ml streptomycin, 100 units/ml penicillin and 50 μg/ml gentamicin. Defined medium (DM) was supplemented with 10 ng/ml EGF. […] After three days of treatment, cells were harvested as described by Hembree et al. in Cancer Res. 54:3160 (1994) and cell numbers determined using a COULTER counter.

[3] = test system: CaSki cells; assay: Example 18: proliferation of CaSki cells; format: cell-based
Method: EGF was added to the retinoid treated cultures to give a final concentration of 20 ng/ml. […] The media was replaced with fresh media and each of the two retinoid compounds, as appropriate, every day. Cell numbers were determined using a COULTER counter as described above.

[4] = test system: guinea pigs; assay: Example 5: premature epiphyseal plate closure (bone toxicity); format: in vivo; conditions: AGN 191183 0.06 mg/ml, intraperitoneal osmotic pump, 14 days, n=4
Method: The osmotic pumps are designed by the manufacturer to deliver ˜5 μl of solution per hour continuously for 14 days.
The animals were euthanized by carbon dioxide asphyxiation 14 days after implantation. The left tibia was removed and placed in 10% buffered formalin. The tibias were decalcified by exposure to a formic acid/formalin solution for 3-4 days, and paraffin sections were prepared. Sections were stained with hematoxylin and eosin by standard methods. The proximal tibial epiphyseal plate was examined and scored as closed or not closed. Epiphyseal plate closure is defined for this purpose as any interruption of the continuity of the epiphyseal growth plate cartilage, i.e., replacement by bone and/or fibroblastic tissue.

[5] = test system: hairless mice; assay: Example 1: skin irritation by topical agonist, topical antagonist; format: in vivo; conditions: group B: AGN 191183 0.025 mg/kg/d topical alone, 5 days, scored to day 8, mean±SD
Method: More particularly skin irritation was measured on a semiquantitative scale by the daily subjective evaluation of skin flaking and abrasions. A single number, the topical irritation score, summarizes the skin irritation induced in an animal during the course of an experiment. The topical irritation score is calculated as follows. The topical irritation score is the algebraic sum of a composite flaking score and a composite abrasion score. The composite scores range from 0-9 and 0-8 for flaking and abrasions, respectively, and take into account the maximum severity, the time of onset, and the average severity of the flaking and abrasions observed.
The severity of flaking is scored on a 5-point scale and the severity of abrasions is scored on a 4-point scale, with higher scores reflecting greater severity. The maximum severity component of the composite scores would be the highest daily severity score assigned to a given animal during the course of observation.
For the time of onset component of the composite score, a score ranging from 0 to 4 is assigned as follows:
The average severity component of the composite score is the sum of the daily flaking or abrasion scores divided by the number of observation days.
To calculate the composite flaking and abrasion scores, the average severity and time of onset scores are summed and divided by 2. The result is added to the maximal severity score. The composite flaking and abrasion scores are then summed to give the overall topical irritation score. Each animal receives a topical irritation score, and the values are expressed as the mean±SD of the individual scores of a group of animals. Values are rounded to the nearest integer.
Female hairless mice [Crl:SKH1-hrBR] […] Treatments are applied to the dorsal skin in a total volume of 4 ml/kg (˜0.1 ml). Mice were observed daily and scored for flaking and abrasions up to and including 3 days after the last treatment, i.e., day 8.

[6] = test system: hairless mice; assay: Example 2: skin irritation and weight loss by oral agonist, topical antagonist; format: in vivo; conditions: group B: oral AGN 191183 0.26 mg/kg/d alone, 4 days
Method: Mice were simultaneously treated topically on the dorsal skin with vehicle (97.6% acetone/2.4% dimethylsulfoxide) or solutions of AGN 193109 in vehicle (6 ml/kg). Specific doses for the different treatment groups are give in Table 8. Treatments were administered daily for 4 consecutive days. Mice were weighed and graded for topical irritation daily as described in Example 1 up to and including 1 day after the last treatment. Percent body weight change is calculated by subtracting […], dividing by initial body weight, and multiplying by 100%. Topical irritation scores are calculated as described in Example 1.

[7] = test system: stromelysin-1 expression in primary foreskin keratinocytes; assay: Example 21: stromelysin-1 expression in keratinocytes (RT-PCR); format: cell-based, human; conditions: AGN 191183 10^−7 M or AGN 193109 10^−6 M, 24 hours
Method: Total RNA prepared from mock-treated and retinoid-treated keratinocytes was reverse transcribed and the resulting cDNA was PCR amplified using β-actin or stromelysin-1 oligo primers exactly as described by Nagpal et al. in J. Biol. Chem. 270:923 (1995)), the disclosure of which has been incorporated by reference. A sample (10 μl) from the PCR amplification reaction was removed after every three cycles starting from 18 cycles of PCR amplification. The sample was electrophoresed on a 2% agarose gel and detected after ethidium bromide staining.

`C/C(=C\c1ccc(C(=O)O)cc1)c1ccc2c(c1)C(C)(C)CCC2(C)C` [AGN 191183, 4-[(E)-2-(5,6,7,8-tetrahydro-5,5,8,8-tetramethylnaphthalen-2-yl)propen-1-yl]benzoic acid, reference compound] was tested, and the “MRP-8 mRNA expression” value [1] was “inhibited”, the EGF mediated proliferation [2] was “completely inhibited EGF mediated proliferation” and the antiproliferative activity ([3]; AGN 191183 10^−10 to 10^−6 M, EGF 20 ng/ml, three days) was “no antiproliferative activity”. The “increase in the proliferation rate” value ([3]; ten thousand fold increase in AGN 191183 concentration) was about 20%, the epiphyseal plate closure [4] was “All four of the AGN 191183-treated guinea pigs showed partial or complete epiphyseal plate closure” and the “Topical Irritation Score” value [5] was 8 ± 2. The “Topical Irritation Score” value [6] was 8 ± 1, the “% Weight Gain or (Loss)” value ([6]; day 5 vs day 1, parentheses = loss) was “(21 ± 6) %” and the “stromelysin-1 mRNA expression” value [7] was “inhibited”.
